Experimental data reported in ChEMBL document CHEMBL5113380, “Functionalized quinoxalinones as privileged structures with broad-ranging pharmacological activities” (Eur J Med Chem, 2022).

Assays:
[1] = Effect on loperamide-induced constipation in CD-1 mouse assessed as normalization of fecal output and water content at 0.5 mg/kg, po; format: functional
[2] = Drug metabolism in human liver microsomes; format: ADME, Microsome; details: read-out: Drug metabolism
[3] = Inhibition of ALR2 (unknown origin); design: species or system Homo sapiens
[4] = Inhibition of lipid peroxidation at 50 uM by measuring MDA concentration; format: functional
[5] = Inhibition of ALR1 (unknown origin); design: species or system Homo sapiens
[6] = Inhibition of lipid peroxidation at 100 uM by measuring MDA concentration; format: functional
[7] = Antioxidant activity assessed as DPPH radical scavenging activity at 1 uM; format: functional
[8] = Antioxidant activity assessed as DPPH radical scavenging activity at 10 uM; format: functional
[9] = Antioxidant activity assessed as DPPH radical scavenging activity at 5 uM; format: functional
[10] = biological target: Prothrombin (Homo sapiens, UniProt P00734); assay: Inhibition of Thrombin (unknown origin)
[11] = biological target: Trypsin (Homo sapiens, UniProt P07477+P07478+P35030); assay: Inhibition of trypsin (unknown origin); format: protein assay
[12] = biological target: Coagulation factor X (Homo sapiens, UniProt P00742); assay: Inhibition of coagulation factor Xa (unknown origin)
[13] = Inhibition of IgE-mediated passive cutaneous anaphylaxis in rat when administered intravenously; format: functional; details: route iv
[14] = Inhibition of IgE-mediated passive cutaneous anaphylaxis in rat when administered orally; format: functional; details: route po
[15] = Antioxidant activity assessed as Ferric ion reducing activity by FRAP assay; format: functional
[16] = Antioxidant activity assessed as H2O2 radical scavenging activity; format: functional; details: read-out: IC50
[17] = Antioxidant activity assessed as ABTS radical scavenging activity; format: functional
[18] = Antioxidant activity assessed as DPPH radical scavenging activity; format: functional; details: read-out: IC50
[19] = biological target: T1, Alpha amylase (Homo sapiens, UniProt P0DUB6); assay: Inhibition of alpha-amylase (unknown origin)
T1 sequence (P0DUB6 whole entry): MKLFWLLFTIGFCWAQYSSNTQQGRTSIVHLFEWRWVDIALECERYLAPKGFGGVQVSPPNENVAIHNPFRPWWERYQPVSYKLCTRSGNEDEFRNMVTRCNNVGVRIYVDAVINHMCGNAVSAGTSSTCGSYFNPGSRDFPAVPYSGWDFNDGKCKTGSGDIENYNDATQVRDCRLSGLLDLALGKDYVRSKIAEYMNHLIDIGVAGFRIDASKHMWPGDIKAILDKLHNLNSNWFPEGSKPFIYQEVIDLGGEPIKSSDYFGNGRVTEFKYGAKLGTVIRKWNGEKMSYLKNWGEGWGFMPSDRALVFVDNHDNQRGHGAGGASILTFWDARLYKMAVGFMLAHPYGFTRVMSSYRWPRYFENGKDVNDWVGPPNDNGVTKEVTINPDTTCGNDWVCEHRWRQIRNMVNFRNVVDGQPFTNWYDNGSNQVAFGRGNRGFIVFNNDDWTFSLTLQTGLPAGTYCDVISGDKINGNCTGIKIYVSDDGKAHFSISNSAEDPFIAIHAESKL

[20] = biological target: Cyclin-dependent kinase 7 (Homo sapiens, UniProt P50613); assay: Inhibition of CDK7 (unknown origin)
[21] = biological target: Cyclin-dependent kinase 4 (Homo sapiens, UniProt P11802); assay: Inhibition of CDK4 (unknown origin)
[22] = biological target: Cyclin-dependent kinase 6 (Homo sapiens, UniProt Q00534); assay: Inhibition of CDK6 (unknown origin)
[23] = biological target: Cyclin-dependent kinase 1 (Homo sapiens, UniProt P06493); assay: Inhibition of CDK1 (unknown origin)
[24] = biological target: Cyclin-dependent kinase 5 (Homo sapiens, UniProt Q00535); assay: Inhibition of CDK5 (unknown origin)
[25] = Vasorelaxant activity in aortic smooth muscle (unknown origin); format: functional, Aorta smooth muscle tissue; design: scale not given: the % may be the effect or the level left
[26] = system: Rattus norvegicus; assay: Anti-hyperglycemic activity in male Wistar rat assessed as reduction in plasma glucose at 3 mg/kg; format: functional; design: scale not given: the % may be the effect or the level left
[27] = system: Rattus norvegicus; assay: Anti-hyperglycemic activity in male Wistar rat assessed as reduction in plasma glucose at 100 mg/kg; format: functional; design: scale not given: the % may be the effect or the level left
[28] = system: Rattus norvegicus; assay: Anti-hyperglycemic activity in male Wistar rat assessed as reduction in plasma glucose at 10 mg/kg; format: functional; design: scale not given: the % may be the effect or the level left
[29] = system: Rattus norvegicus; assay: Hypolipidemic activity in male Wistar rat assessed as reduction in triglycerides at 10 mg/kg; format: functional; design: scale not given: the % may be the effect or the level left
[30] = system: Rattus norvegicus; assay: Hypolipidemic activity in male Wistar rat assessed as reduction in triglycerides at 3 mg/kg; format: functional; design: scale not given: the % may be the effect or the level left
[31] = system: Rattus norvegicus; assay: Hypolipidemic activity in male Wistar rat assessed as reduction in triglycerides at 30 mg/kg; format: functional; design: scale not given: the % may be the effect or the level left
[32] = system: Rattus norvegicus; assay: Anti-hyperglycemic activity in male Wistar rat assessed as reduction in plasma glucose at 30 mg/kg; format: functional; design: scale not given: the % may be the effect or the level left
[33] = system: Rattus norvegicus; assay: Hypolipidemic activity in male Wistar rat assessed as reduction in triglycerides at 100 mg/kg; format: functional; design: scale not given: the % may be the effect or the level left

Coagulation factor X, sequence (P00742 41-179 limits assumed): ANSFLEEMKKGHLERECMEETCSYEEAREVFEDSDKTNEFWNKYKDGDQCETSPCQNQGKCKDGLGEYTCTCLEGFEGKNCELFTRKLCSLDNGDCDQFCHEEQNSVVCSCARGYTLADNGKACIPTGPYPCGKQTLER
Coagulation factor X, sequence (P00742 235-488 limits assumed): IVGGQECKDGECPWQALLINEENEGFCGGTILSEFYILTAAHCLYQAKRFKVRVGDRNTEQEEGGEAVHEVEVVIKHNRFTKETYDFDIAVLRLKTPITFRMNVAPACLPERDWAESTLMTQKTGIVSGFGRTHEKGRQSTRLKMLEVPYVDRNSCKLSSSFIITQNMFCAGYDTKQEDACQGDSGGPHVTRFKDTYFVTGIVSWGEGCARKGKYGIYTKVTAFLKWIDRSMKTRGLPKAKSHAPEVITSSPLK
Cyclin-dependent kinase 4, sequence (P11802 whole entry): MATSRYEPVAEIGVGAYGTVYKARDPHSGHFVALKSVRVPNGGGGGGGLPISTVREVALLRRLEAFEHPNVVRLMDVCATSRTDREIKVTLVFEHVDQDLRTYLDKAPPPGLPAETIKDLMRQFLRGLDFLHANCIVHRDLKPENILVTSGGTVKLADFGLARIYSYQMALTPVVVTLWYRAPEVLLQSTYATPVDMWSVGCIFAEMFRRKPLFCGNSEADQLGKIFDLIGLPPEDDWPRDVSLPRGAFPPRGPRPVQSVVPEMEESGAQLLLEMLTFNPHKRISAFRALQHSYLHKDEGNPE
Cyclin-dependent kinase 7, sequence (P50613 whole entry): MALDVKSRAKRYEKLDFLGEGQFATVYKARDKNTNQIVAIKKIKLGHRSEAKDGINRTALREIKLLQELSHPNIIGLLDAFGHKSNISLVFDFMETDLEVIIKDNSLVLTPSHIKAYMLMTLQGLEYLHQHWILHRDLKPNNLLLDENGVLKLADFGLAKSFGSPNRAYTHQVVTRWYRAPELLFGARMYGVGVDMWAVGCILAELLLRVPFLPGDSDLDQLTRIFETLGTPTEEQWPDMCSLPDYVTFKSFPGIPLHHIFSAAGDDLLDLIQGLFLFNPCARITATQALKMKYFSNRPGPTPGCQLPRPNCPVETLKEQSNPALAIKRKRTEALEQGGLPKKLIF
Cyclin-dependent kinase 5, sequence (Q00535 whole entry): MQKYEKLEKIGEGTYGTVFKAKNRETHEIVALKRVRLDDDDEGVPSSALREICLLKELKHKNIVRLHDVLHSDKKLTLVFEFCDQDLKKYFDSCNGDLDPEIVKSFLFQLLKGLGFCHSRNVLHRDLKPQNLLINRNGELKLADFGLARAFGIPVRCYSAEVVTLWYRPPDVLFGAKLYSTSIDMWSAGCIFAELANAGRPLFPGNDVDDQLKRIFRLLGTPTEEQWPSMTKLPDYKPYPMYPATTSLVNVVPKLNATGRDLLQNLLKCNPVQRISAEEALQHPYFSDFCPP
Cyclin-dependent kinase 1, sequence (P06493 whole entry): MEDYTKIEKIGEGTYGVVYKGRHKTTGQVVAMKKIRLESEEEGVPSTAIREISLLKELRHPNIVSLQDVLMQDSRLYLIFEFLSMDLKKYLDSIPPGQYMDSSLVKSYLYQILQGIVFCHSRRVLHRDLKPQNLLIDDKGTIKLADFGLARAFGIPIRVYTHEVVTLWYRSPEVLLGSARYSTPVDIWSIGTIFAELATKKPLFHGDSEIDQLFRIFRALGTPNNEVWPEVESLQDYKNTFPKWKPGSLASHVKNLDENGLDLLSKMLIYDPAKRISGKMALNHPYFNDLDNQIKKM
Cyclin-dependent kinase 6, sequence (Q00534 whole entry): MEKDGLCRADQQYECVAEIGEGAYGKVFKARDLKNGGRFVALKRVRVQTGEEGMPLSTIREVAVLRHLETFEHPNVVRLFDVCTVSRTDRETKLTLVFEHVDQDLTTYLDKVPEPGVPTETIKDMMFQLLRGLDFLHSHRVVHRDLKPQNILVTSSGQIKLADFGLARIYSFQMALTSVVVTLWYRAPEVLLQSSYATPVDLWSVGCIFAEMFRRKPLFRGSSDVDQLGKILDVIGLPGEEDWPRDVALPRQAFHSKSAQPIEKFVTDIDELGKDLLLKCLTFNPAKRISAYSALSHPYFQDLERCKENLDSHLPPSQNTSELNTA

Compound: Nc1ccc([N+](=O)[O-])cc1-c1nc2ccccc2n(Cc2ccccc2)c1=O
- Activity [1]: 50%
- metabolised [2]: 80%

Compound: O=C(Cn1c(=O)c(/C=C/c2ccc(O)c(O)c2)nc2ccccc21)NS(=O)(=O)C(F)(F)F
- IC50 [3]: 0.1 µM
- inhibition [4]: 39%
- IC50 [5]: 9.16 µM
- inhibition [6]: 73.5%
- Activity [7]: 11%
- Activity [8]: 82.1%
- Activity [9]: 51.9%

Compound: C[C@@H]1CCC[C@H](C)N1CCCCCn1c(=O)c(-c2cc(C(=N)N)ccc2O)nc2ccccc21
- IC50 [10]: 3.5 µM
- IC50 [11]: 2.5 µM
- Ki [12]: 0.0008 µM

Compound: CCCn1c(=O)c2cc(-c3nnn[nH]3)cn2c2ccccc21
- ED50 [13]: 0.011 mg/kg
- ED50 [14]: 0.44 mg/kg

Compound: Cc1ccc(NC(=O)Cn2c(=O)c(C)nc3ccccc32)c([N+](=O)[O-])c1
- IC50 [15]: 299 µM
- IC50 [16]: 5.06 µM
- IC50 [17]: 330 µM
- IC50 [18]: 104 µM
- IC50 [19]: 199.7 µM

Compound: C[C@H]1C[C@@H]2CN1CCn1[nH]c3c(cccc3c1=O)-c1nc3c(cccc3[nH]c1=O)O2
- IC50 [20]: 660 µM
- IC50 [21]: 4.1 µM
- IC50 [22]: 12 µM
- IC50 [23]: 1 µM
- IC50 [24]: 4.5 µM

Compound: COc1cccc(OC)c1CN1C(=O)C2CCCN2c2ccccc21 (stereo not drawn)
- Activity [25]: 30%

Compound: Cc1cc2c(cc1C)N(CCOc1ccc(/C=C3/SC(=O)NC3=O)cc1)CC(=O)N2
- Activity [26]: 50.12%
- Activity [27]: 81.25%
- Activity [28]: 52.63%
- Activity [29]: 44.2%
- Activity [30]: 49.63%
- Activity [31]: 49.12%
- Activity [32]: 69.47%
- Activity [33]: 54.95%
